{"source": "patent US10329243B2", "about": "“Biphenyl derivative and uses thereof” (XI'AN LIBANG PHARMACEUTICAL CO., LTD, priority 2015, dated 2019)", "format_in_all_cases": "in vivo, SD rats", "key": {"[1]": {"system": "brain cell apoptosis", "experiment": "Apoptosis determination (TUNEL method), permanent cerebral ischemia model", "description": "(§1) Rats were intraperitoneally injected with 10% chloral hydrate 350 mg/kg after anesthesia and opened up at the center of the neck in accordance with the Zea Longa modified method. The right common carotid artery was separated, and the right external carotid artery branches was ligated. A small opening was made at the distal end of the external carotid artery, and a previously prepared thread was inserted through the common carotid artery and the external carotid artery bifurcation into the internal carotid artery, till the anterior end of the middle cerebral artery, with an immersed depth of 18 to 19 mm. The thread was then secured, and the wound was sutured layer by layer. After the operation, the rats were placed in a clean incubator to wake up. […] The sham operation group, the permanent cerebral ischemia model group, and the Example groups were prepared strictly according to the requirements of the cerebral ischemic reperfusion model, while in the sham operation group the thread was put only into the external carotid artery. The animals were allowed to eat and drink freely after waking up. The sham operation group, the permanent cerebral ischemia model group, and the Example groups were administered intravenously the aqueous solution of the biphenyl derivatives in PEG400 at 40 mg/kg (40 mg/kg means that 40 mg of the test compound per kg of the body weight of rats) 30 min before insertion of thread and 12 h after embolism, respectively. The sham operation group and the permanent cerebral ischemia model group were injected with the same amount of blank PEG400 aqueous solution at the same time point.\n(§2) 24 hours after the embolism, 8 rats in each group were sacrificed by decapitation, the brain was removed, rinsed with PBS (pH 7.4) at −20°i for 20 min, evenly sliced (with a thickness of 2 mm), stained in a 2% TTC solution at 37°% in the dark for 30 min, fixed in 10% formalin for 24 h, and photographs were taken to analyze the infarct volume. A mixture of femoral arterial and venous blood was drawn from another 8 rats in each group under anesthesia, placed in a low temperature centrifuge at 4° C., centrifuged at 3500 r/min for 20 min, and the supernatant was stored in a refrigerator at −20° C. ready for SOD and MDA detection. After the blood was drawn, a perfusion needle was insert through the apex to the ascending aorta, and saline at 4° C. was rapid infused until the effluent became clear, followed by 4% paraformaldehyde phosphate buffer perfusion for fixation; the brain was removed by craniotomy, and brain tissues 2 mm in front of and behind the optic chiasma were taken and fixed, dehydrated, rendered transparent, impregnated in wax, and embedded. Brain continuous coronary tissue pathological sections were consecutively cut for later use. The remaining 8 rats in each group were sacrificed, brains were removed, the ischemic brain hemispheres were immediately taken on an ice tray, and 10% brain tissue homogenate was prepared for the detection of IL-1β and TNF-α.\n(§3) The TUNEL method was used for determination. Brain tissue paraffin sections were dewaxed into water, washed with 3% H2O2 to eliminate endogenous peroxidase activity, and rinsed with distilled water for 2 min, repeated 3 times. A labelling solution was added for labelling at 37°t for 2 h, and a blocking solution was added for blocking at room temperature for 30 min. A biotinylated anti-digoxin antibody was added for a reaction at 37°a for 30 min, and SABC was added for a reaction at 37°a for 30 min. The sections were continuously rinsed with TBS for 5 min repeatedly for 4 times, stained with DAB, sufficiently washed, mild counterstained with Hematoxylin, gradient dehydrated with alcohol, made transparent with toluene, sealed and fixed. Five non-overlapping fields in semi-dark band were randomly selected from each section and inputted into the image analysis system. The number of apoptotic cells was counted, and the average was designated the number of apoptotic cells."}, "[2]": {"system": "brain cell apoptosis", "experiment": "Apoptosis determination (TUNEL method), cerebral ischemic reperfusion MCAO model", "description": "as §1, with “group, the ischemic reperfusion group, and” for “group, the permanent cerebral ischemia model group, and”, “waking up. After 2 h, the thread was pulled out to achieve reperfusion. The sham” for “waking up. The sham”, “min before reperfusion and 12” for “min before insertion of thread and 12”, “h after reperfusion, respectively. The” for “h after embolism, respectively. The”, “and the ischemic reperfusion group were” for “and the permanent cerebral ischemia model group were”\nas §2, with “reperfusion,” for “the embolism,”, “−20° i” for “−20°i”\nas §3, with “system.” for “system. The number of apoptotic cells was counted, and the average was designated the number of apoptotic cells.”"}, "[3]": {"system": "rats with permanent cerebral ischemia injury", "experiment": "Relative infarct volume (TTC, imageJ), permanent cerebral ischemia model", "conditions": "for Relative Brain infarction volume (%): 40 mg/kg intravenously 30 min before insertion of thread and 12 h after embolism, 24 h after the embolism", "description": "as §1, §2\nThe infarct area in each brain section was analyzed and quantified by the imageJ image software, and the ratio of cerebral infarction volume in the overall brain volume was calculated."}, "[4]": {"conditions": "permanent cerebral ischemia model rats, 40 mg/kg intravenously, brain sections 24 h after the embolism, TUNEL, average of five fields"}, "[5]": {"conditions": "ischemic reperfusion MCAO rats, 40 mg/kg intravenously, brain sections 24 h after reperfusion, TUNEL, average of five fields"}}, "data": [{"molecule": "3,3′,5,5′-tetraisopropylbiphenyl-4,4′-bis(oxymethylene phosphate) [Example 3 group]", "values": [{"measurement": "Number of apoptotic cells", "setting": "[1]; rat, in vivo, iv, 40 mg/kg", "value": "29.72 ± 3.43"}, {"measurement": "Number of apoptotic cells", "setting": "[2]; rat, in vivo, iv, 40 mg/kg", "value": "25.14 ± 2.54"}]}, {"molecule": "CC1=NN(c2ccccc2)C(=O)C1", "note": "[Edaravone injection, edaravone, reference compound]", "values": [{"measurement": "Number of apoptotic cells", "setting": "[1]; permanent cerebral ischemia model rats, edaravone 3 mg/kg", "value": "33.19 ± 3.81"}, {"measurement": "Brain relative infarct volume (%)", "setting": "[3]; edaravone 3 mg/kg", "value": "31.29 ± 4.02", "unit": "%"}, {"measurement": "Number of apoptotic cells", "setting": "[2]; ischemic reperfusion rat model, edaravone 3 mg/kg", "value": "28.6 ± 4.90"}]}, {"molecule": "CC(=O)Oc1c(C(C)C)cc(-c2cc(C(C)C)c(O)c(C(C)C)c2)cc1C(C)C", "note": "[Example 1 group, 4′-hydroxy-3,3′,5,5′-tetraisopropylbiphenyl-4-acetate]", "values": [{"measurement": "Relative Brain infarction volume (%)", "setting": "[3]; 40 mg/kg", "value": "24.71 ± 3.76", "unit": "%"}]}, {"molecule": "CC(=O)Oc1c(C(C)C)cc(-c2cc(C(C)C)c(OC(C)=O)c(C(C)C)c2)cc1C(C)C", "note": "[Example 2 group, 3,3′,5,5′-tetraisopropylbiphenyl-4′-diacetate]", "values": [{"measurement": "Number of apoptotic cells", "setting": "[1]; [4]", "value": "23.27 ± 3.78"}, {"measurement": "Relative Brain infarction volume (%)", "setting": "[3]", "value": "27.92 ± 4.51", "unit": "%"}, {"measurement": "Number of apoptotic cells", "setting": "[2]; [5]", "value": "24.65 ± 3.41"}]}, {"molecule": "CC(C)c1cc(-c2cc(C(C)C)c(OC(=O)CCC(=O)O)c(C(C)C)c2)cc(C(C)C)c1O", "note": "[Example 5 group, [4-(4′-hydroxy-3,3′,5,5′-tetraisopropylbiphenyl)oxy]-4-carbonyl butyric acid]", "values": [{"measurement": "Number of apoptotic cells", "setting": "[1]; [4]", "value": "23.48 ± 3.62"}, {"measurement": "Relative Brain infarction volume (%)", "setting": "[3]", "value": "28.37 ± 5.02", "unit": "%"}, {"measurement": "Number of apoptotic cells", "setting": "[2]; [5]", "value": "20.56 ± 4.29"}]}, {"molecule": "CCCc1cc(-c2cc(CCC)c(O)c(C(C)C)c2)cc(C(C)C)c1O", "note": "[Example 6 group, 4,4′-dihydroxy-3,3′-diisopropyl-5,5′-dipropylbiphenyl]", "values": [{"measurement": "Number of apoptotic cells", "setting": "[1]; [4]", "value": "21.24 ± 5.30"}, {"measurement": "Relative Brain infarction volume (%)", "setting": "[3]", "value": "22.53 ± 4.62", "unit": "%"}, {"measurement": "Number of apoptotic cells", "setting": "[2]; [5]", "value": "19.47 ± 5.02"}]}, {"molecule": "CCCc1cc(-c2cc(CCC)c(O)c(CCC)c2)cc(CCC)c1O", "note": "[Example 7 group, 4,4′-dihydroxy-3,3′,5,5′-tetrapropylbiphenyl]", "values": [{"measurement": "Number of apoptotic cells", "setting": "[1]; [4]", "value": "20.32 ± 4.19"}, {"measurement": "Relative Brain infarction volume (%)", "setting": "[3]", "value": "21.39 ± 4.01", "unit": "%"}, {"measurement": "Number of apoptotic cells", "setting": "[2]; [5]", "value": "20.28 ± 3.76"}]}, {"molecule": "CC(C)c1cc(-c2cc(C(C)C)c(C(=O)O)c(C(C)C)c2)cc(C(C)C)c1O", "note": "[Example 8 group, 4′-hydroxy-3,3′,5,5′-tetraisopropylbiphenyl-4-carboxylic acid]", "values": [{"measurement": "Number of apoptotic cells", "setting": "[1]; [4]", "value": "27.74 ± 4.20"}, {"measurement": "Relative Brain infarction volume (%)", "setting": "[3]", "value": "29.74 ± 3.13", "unit": "%"}, {"measurement": "Number of apoptotic cells", "setting": "[2]; [5]", "value": "24.81 ± 3.35"}]}, {"molecule": "CC(C)c1cc(-c2cc(C(C)C)c(Cl)c(C(C)C)c2)cc(C(C)C)c1O", "note": "[Example 9 group, 4-chloro-4′-hydroxy-3,3′,5,5′-tetraisopropylbiphenyl]", "values": [{"measurement": "Number of apoptotic cells", "setting": "[1]; rat, in vivo, iv, 40 mg/kg", "value": "31.44 ± 5.19"}, {"measurement": "Number of apoptotic cells", "setting": "[2]; rat, in vivo, iv, 40 mg/kg", "value": "25.47 ± 4.19"}]}, {"molecule": "CC(C)c1cc(-c2cc(C(C)C)c(OC=O)c(C(C)C)c2)cc(C(C)C)c1O", "note": "[Example 10 group]", "values": [{"measurement": "Number of apoptotic cells", "setting": "[1]; [4]", "value": "23.67 ± 5.13"}, {"measurement": "Relative Brain infarction volume (%)", "setting": "[3]", "value": "26.46 ± 4.52", "unit": "%"}, {"measurement": "Number of apoptotic cells", "setting": "[2]; [5]", "value": "22.18 ± 5.22"}]}, {"molecule": "CC(C)c1cc(-c2cc(C(C)C)c(OC(=O)C(N)C(C)C)c(C(C)C)c2)cc(C(C)C)c1O", "note": "(centres unmarked) [Example 11 group, 4′-hydroxy-3,3′,5,5′-tetraisopropylbiphenyl-2-amino-3-methylbutyrate]", "values": [{"measurement": "Number of apoptotic cells", "setting": "[1]; [4]", "value": "26.31 ± 3.86"}, {"measurement": "Relative Brain infarction volume (%)", "setting": "[3]", "value": "28.98 ± 5.24", "unit": "%"}, {"measurement": "Number of apoptotic cells", "setting": "[2]; [5]", "value": "24.19 ± 4.29"}]}, {"molecule": "CC(=O)OC(C)Oc1c(C(C)C)cc(-c2cc(C(C)C)c(O)c(C(C)C)c2)cc1C(C)C", "note": "(centres unmarked) [Example 12 group, Ethyl 1-(4′-hydroxy-3,3′,5,5′-tetraisopropylbiphenyl-4-oxo)acetate]", "values": [{"measurement": "Number of apoptotic cells", "setting": "[1]; [4]", "value": "32.45 ± 4.21"}, {"measurement": "Relative Brain infarction volume (%)", "setting": "[3]", "value": "31.79 ± 5.94", "unit": "%"}, {"measurement": "Number of apoptotic cells", "setting": "[2]; [5]", "value": "26.27 ± 5.37"}]}]}
